Results as given in patent US12370183B2, “Compositions and methods for treating malaria” (Rutgers, The State University of New Jersey, priority 2020, dated 2025).
Where two headings read alike, the source gives them in different places.

What was measured:
[1] = test system: 3D7 strain of Plasmodium falciparum; assay: Potency in the 3D7 strain of Plasmodium falciparum (EC50); format: cell-based; conditions: Plasmodium falciparum
Wild-Type attB Pf Dd2 = assay: P. falciparum (Dd2 strain) asexual blood stage assay, wild-type attB; format: cell-based; conditions: Plasmodium falciparum
Protocol: (§1) Assays using human blood cells infected with Plasmodium falciparum: (Pf) parasites, both wild-type strains as well as mutant drug-resistant strains, were performed as described below. Wild-type strains used were aatB Pf (Dd2 strain) and Pf (Dd2 strain). Mutant strains used were proguanil resistant attb Pf (Dd2 strain), dihydroorotate dehydrogenase (DHODH) deficient aatB Pf (Dd2 strain), and DHODH deficient and proguanil resistant Pf (Dd2 strain).
(§2) 2008 Jul. 1; 105(26):9059-64.
(§3) Parasitemia was estimated by blood smear Giemsa stain and visual inspection under the microscopic.
(§4) The screening plate was prepared by centrifuging for parasite culture for 5 min at 800×g at RT (low brake) and removing supernatant. A parasite suspension was prepared with 0.3% parasitemia and 4% hematocrit in screening medium (SM). The suspension was gassed with a gas mixture of 1% oxygen, 3% carbon dioxide, 96% nitrogen and stored at 37° C. for until ready to use. 50 nl of 1 mM compound in DMSO was prespotted into 1536 well plates (final drug conc. of 12.5 μM, final DMSO conc. of 0.625%) with the acoustic dispenser ATS. Controls were Artemisinin, Chloroquine, and DMSO. 8 μl of SM was dispensed into 1,536-well, black, clear-bottom plates (Greiner) using the MultiFlo™ Microplate dispenser (BioTek) (final parasitemia of 0.3% and 2.5% hematocrit in SM). The plates were incubated at 37° C. for 72 h with water-soaked tissue in a closed ziploc bag gassed with 1% oxygen, 3% carbon dioxide, 96% nitrogen.
(§5) 2 μl of detection reagent mixture (10×SYBR Green I (Invitrogen) in Lysis buffer (20 mM Tris/HCl, 5 mM EDTA, 0.16% Saponin wt/vol, 1.6% Triton X vol/vol) was added. Assay plates were read from the bottom by using the 2104 EnVision® Multilabel Reader (PerkinElmer) (485 nm excitation, 530 nm emission). The results are presented in Table 5 below.

[2] = test system: Proguanil resistant attB Pf Dd2; assay: P. falciparum (Dd2 strain) asexual blood stage assay, proguanil resistant attB; format: cell-based, Plasmodium falciparum; conditions: for IC50: Plasmodium falciparum, DD2, 72 h, read-out: Proguanil resistant attB Pf Dd2 IC50 (uM)
Protocol: as §1, §2, §3, §4, §5

[3] = 3D7, read-out: 3D7 Mean EC50 (μM)
[4] = DD2, 72 h, read-out: Wild-Type attB Pf Dd2 IC50 (uM)
[5] = DD2, read-out: IC50 against wild-type attB Pf

Row | SMILES | EC50 ([1]; 3D7, read-out: 3D7 EC50) [µM] | EC50 [1, 3] [µM] | IC50 (Wild-Type attB Pf Dd2; [4]) [µM] | IC50 (Wild-Type attB Pf Dd2; [5]) [µM] | IC50 [2] [µM] | potency against a proguanil resistant attB mutant strain ([2]; in words)
1 | O=C(Nc1ccc(F)c(F)c1)c1c2c(nc3ccccc13)CCN(Cc1ccccc1)C2 [Compound 66, 2-Benzyl-N-(3,4-difluorophenyl)-1,2,3,4-tetrahydrobenzo[b][1,6]naphthyridine-10-carboxamide] | 0.0204 | > 3.49 | 0.0565 | 0.0556 | 0.0699 | –
2 | O=C1c2c3c(nc4ccccc24)CCN(Cc2ccccc2)C3N1c1ccc(F)c(F)c1 (stereo not shown) [Compound 177, 3-Benzyl-2-(3,4-difluorophenyl)-2a,3,4,5-tetrahydrobenzo[b]pyrrolo[4,3,2-de][1,6]naphthyridin-1(2H)-one] | – | 0.00328 ± 0.000533 | 0.00895 | 0.00895 | 0.0113 | undiminished potency
